From patent publication US9341616B2, “Sweet taste receptor chimeric proteins and use thereof” (AJINOMOTO CO., INC., priority 2014, dated 2016) come the findings set out here.

Residues, ends and D or L forms follow the SMILES beside them.

In this experiment the target is h-mT1R2-EX5/T1R3mosaicA (UniProt Q8TE23+Q925D8, A12W/A31M/A537S/A558R/A564V/A568V/A570T/A588V/A645S/A649T/A658V/A698V/A702T/A782V/A793V/A807V/C582S/C678S/E16H/E530V/E534N/E542M/E548N/E725V/F14L/F29L/F525Y/F541I/F612A/F622V/F665L/F695L/G696N/G701T/H528R/H728R/I36V/I490V/I510L/I518V/I595M/I60P/I617V/I643V/I645L/I692L/I695G/I706V/I740A/I803L/K30R/K504M/K555R/K565R/K626T/K714N/K818R/K827G/L17P/L521P/L560F/L571I/L578I/L610P/L631F/L636F/L639V/L684P/L688V/L702I/L734M/L735F/L800F/L823M/L825Q/M19T/M492I/M616G/M644L/M682V/M690V/M744T/M748V/N52R/N540G/N541S/N547G/N58S/N63T/N675D/N721H/P545F/P561R/P564S/P61V/P638T/P824S/Q32K/Q536L/Q53S/Q546K/Q550E/Q555R/Q56R/Q611L/Q676H/Q757R/Q795R/Q831P/R498S/R632Q/R667S/S22P/S45E/S501P/S547N/S550A/S576L/S595F/S610P/S628F/S635P/S637R/S663R/S670G/S679G/S681F/S703N/S717H/S727G/S784D/S804G/T46A/T50G/T529S/T542A/T549I/T609V/T629S/T642S/T663I/T694M/T705I/T706G/T716I/T813A/V508I/V512P/V557A/V573A/V584A/V585L/V613L/V617M/V673M/V687A/V691A/V694A/V718L/V718M/V723A/V729T/V738A/V741L/V774I/V791M/V805L/V812A/V821L/W599R/W676R/W824R/Y533F/Y615F/Y671F/Y680C/Y769S/Y783H/Y794L). To be noted: Table 4; genes h-mTEX5/T3mA (h-mT1R2-EX5, T1R3mA); HEK293E cells.
Sequence of h-mT1R2-EX5/T1R3mosaicA (Q8TE23 with tags, fused parts or gaps with the stated changes limits assumed): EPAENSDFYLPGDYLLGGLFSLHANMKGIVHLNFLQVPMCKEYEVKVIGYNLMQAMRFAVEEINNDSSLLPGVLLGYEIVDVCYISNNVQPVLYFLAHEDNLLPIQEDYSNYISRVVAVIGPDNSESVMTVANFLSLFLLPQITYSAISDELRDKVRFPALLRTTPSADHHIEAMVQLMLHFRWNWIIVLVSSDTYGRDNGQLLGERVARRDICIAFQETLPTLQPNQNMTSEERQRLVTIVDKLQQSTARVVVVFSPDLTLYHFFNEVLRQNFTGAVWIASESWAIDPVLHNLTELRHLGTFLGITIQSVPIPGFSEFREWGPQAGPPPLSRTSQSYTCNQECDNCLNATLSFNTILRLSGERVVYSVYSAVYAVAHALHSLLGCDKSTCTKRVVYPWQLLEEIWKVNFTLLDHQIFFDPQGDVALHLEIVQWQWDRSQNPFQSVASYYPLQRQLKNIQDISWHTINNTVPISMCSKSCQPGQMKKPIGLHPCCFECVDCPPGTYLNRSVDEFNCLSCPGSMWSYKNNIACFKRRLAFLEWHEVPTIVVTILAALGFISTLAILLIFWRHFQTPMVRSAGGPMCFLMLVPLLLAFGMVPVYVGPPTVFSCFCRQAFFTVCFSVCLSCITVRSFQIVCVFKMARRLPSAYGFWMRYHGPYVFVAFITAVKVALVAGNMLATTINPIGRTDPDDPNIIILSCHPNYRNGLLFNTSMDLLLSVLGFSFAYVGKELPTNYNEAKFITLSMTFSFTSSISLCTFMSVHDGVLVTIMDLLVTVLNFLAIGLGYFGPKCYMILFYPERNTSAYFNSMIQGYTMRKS
Sequence of h-mT1R2-EX5/T1R3mosaicA (Q925D8 with tags, fused parts or gaps with the stated changes limits assumed): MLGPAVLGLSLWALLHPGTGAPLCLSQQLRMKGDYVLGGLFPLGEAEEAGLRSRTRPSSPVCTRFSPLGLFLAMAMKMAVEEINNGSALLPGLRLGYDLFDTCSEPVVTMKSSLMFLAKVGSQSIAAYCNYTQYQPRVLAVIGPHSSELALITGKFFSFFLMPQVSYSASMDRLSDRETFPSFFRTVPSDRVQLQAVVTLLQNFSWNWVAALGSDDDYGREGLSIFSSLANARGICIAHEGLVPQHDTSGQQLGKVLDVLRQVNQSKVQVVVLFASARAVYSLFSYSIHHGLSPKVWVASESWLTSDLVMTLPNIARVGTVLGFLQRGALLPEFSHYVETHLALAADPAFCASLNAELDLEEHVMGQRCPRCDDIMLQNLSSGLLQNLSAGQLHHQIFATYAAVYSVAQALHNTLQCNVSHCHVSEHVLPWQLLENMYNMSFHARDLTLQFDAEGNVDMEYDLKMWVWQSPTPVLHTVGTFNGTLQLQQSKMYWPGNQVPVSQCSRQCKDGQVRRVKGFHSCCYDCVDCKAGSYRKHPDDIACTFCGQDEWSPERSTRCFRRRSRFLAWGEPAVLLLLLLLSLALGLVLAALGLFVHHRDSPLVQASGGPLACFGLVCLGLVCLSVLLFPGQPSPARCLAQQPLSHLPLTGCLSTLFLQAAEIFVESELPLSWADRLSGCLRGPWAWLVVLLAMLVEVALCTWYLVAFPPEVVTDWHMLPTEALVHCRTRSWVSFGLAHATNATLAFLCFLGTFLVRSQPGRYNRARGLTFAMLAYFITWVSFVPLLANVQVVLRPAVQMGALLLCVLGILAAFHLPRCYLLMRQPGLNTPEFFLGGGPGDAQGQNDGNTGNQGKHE
In turn, `CC1=CC(=O)NS(=O)(=O)O1` [Acesulfame K, acesulfame potassium] showed a S/N of 5.1. Regarding `COC(=O)[C@H](Cc1ccccc1)NC(=O)[C@H](CC(=O)O)NCCCc1ccc(OC)c(O)c1` [Advantame, advantame], the S/N stood at 9.4. As to `COC(=O)[C@H](Cc1ccccc1)NC(=O)[C@@H](N)CC(=O)O` [Aspartame, aspartame] (HELM PEPTIDE1{D.F.[CO[*:1]]}$$$$V2.0), the S/N is recorded as 7.6. Turning to `COC(=O)[C@H](Cc1ccccc1)NC(=O)[C@H](CC(=O)O)NCCC(C)(C)C` [Neotame, neotame], the S/N turned out to be 7.5. In turn, `C[C@H](NC(=Nc1ccc(C#N)cc1)NCC(=O)O)c1ccccc1` [SC-45647, [3-[(S)-1-phenylethyl]-2-(4-cyanophenyl)guanidino]acetic acid] showed a S/N of 7.3. As for `O=C1NS(=O)(=O)c2ccccc21.[Na]` [Saccharin Na, sodium saccharin], the figure is 4.6; as for `OC[C@H]1O[C@H](O[C@]2(CCl)O[C@H](CCl)[C@@H](O)[C@@H]2O)[C@H](O)[C@@H](O)[C@H]1Cl` [Sucralose, sucralose], 7.4; as for `OC[C@H]1O[C@@](CO)(O[C@H]2O[C@H](CO)[C@@H](O)[C@H](O)[C@H]2O)[C@@H](O)[C@@H]1O` [Sucrose, sucrose], 3.5.
